According to US11572359B2, “PARP/PI3K double-target inhibit containing pyridopyrimidine structure” (CHINA PHARMACEUTICAL UNIVERSITY, priority 2017, dated 2023):
Read-outs that look alike come from different tables or passages of the source.

Legend:
PARP-1 = PARP-1 (Homo sapiens, UniProt P09874); experiment: PARP-1 inhibitory activity at the enzyme level (histone-coated plate, chemiluminescence); format: biochemical; conditions: for inhibition at 0.01 µM: 10 nM compound, read-out: Inhibition rate on PARP-1 (10 nM)
Procedure: Experimental method for PARP-1 inhibitory activity: taking out a 96-well plate pre-coated with histones, and adding a following enzyme reaction system and inhibitors of different concentrations into each well, including: 50 μL of a reaction buffer solution (Tris*HCl, pH 8.0), NAD^+, biotin-labeled activated DNA, PARP-1 enzyme, and an inhibitor; after reaction at a room temperature for 1 hour, adding 50 uL of avidin-labeled HRP into each well for reaction for 30 minutes; and then adding 100 μL of an HRP substrate, and detecting a chemiluminescence value on a SpectraMax M instrument. The percentage of enzyme activity is calculated by the following formula: Enzyme activity percentage (%)=(OD value administration hole-OD value background)/(OD value control hole−OD value background)×100%
(§1) Method for determining IC50 of PARP-1 and PI3Kα: diluting a drug concentration according to a three-fold concentration gradient, and detecting two duplicate wells at each concentration; taking the drug concentration as the abscissa and the percentage of enzyme activity corresponding to each concentration as the ordinate, and calculating to obtain inhibition IC50 values of all tested compounds by using Graphpad Prism5 for nonlinear regression.

[1] = system: MDA-MB-231 (human breast cancer cells); experiment: Tumor cell proliferation inhibition (SRB, 72 hours), MDA-MB-231; format: cell-based; conditions: Homo sapiens, MDA-MB-231, 72 h
Procedure: (§2) Inoculating HCT116 (human colon cancer cells), HCC1937 (human breast cancer cells), MDA-MB-231 (human breast cancer cells) and MDA-MB-468 (human breast cancer cells) in a logarithmic growth phase with a certain quantity in a 96-well plate (200 μL/well) for culture for 24 hours so as to adhere to walls and then adding drugs. Arranging 3 duplicate wells for each drug concentration, and setting corresponding zero-cut holes and blank controls. After 72 hours of drug action, adding 50% TCA (50 μL/well) into adherent cells, fixing at 4° C. for 1 hour, pouring a fixing solution, washing for 5 times with distilled water, and naturally drying. Adding 100 μL of 4 mg/mL SRB into each well, staining at a room temperature for 15 minutes, discarding, washing for 5 times with 1% glacial acetic acid, and naturally drying. Finally, adding 150 μL of a 10 mM Tris solution into each well, shaking to be uniform, and measuring OD values at a wavelength of 565 nm using a wavelength-adjustable microplate reader (VERSAmax™, Molecular Device).

PI3Kα = PI3Kα (Homo sapiens, UniProt P42336); experiment: PI3Kα inhibitory activity at the enzyme level (ADP detection by luciferase method); format: biochemical; conditions: for inhibition at 0.1 µM: 100 nM compound, read-out: Inhibition rate on PI3Kα (100 nM)
Procedure: Experimental method for PI3Kα inhibitory activity: simultaneously adding 40 mM Tris, pH 7.4, 10 mM MgCl2, 0.1 mg/ml BSA, 1 mM DTT, 10 μM ATP, PI3Kα kinase and a kinase substrate into different concentrations of compounds to be sieved to form a 50 μL reaction system, after reaction at 30° C. for 40 minutes, detecting an ADP content in the system through a luciferase method, and then after reaction for 5 minutes, detecting a chemiluminescence signal on an MD-SpectraMax M5 multi-function microplate reader, wherein the intensity of a value of the chemiluminescence signal is in direct proportion to […]. The detected value of the chemiluminescence signal is substituted into the following formula: Enzyme activity percentage (%)=(OD value administration hole-OD value background)/(OD value control hole−OD value background)×100%
as §1

[2] = system: HCT116 (human colon cancer cells); experiment: Tumor cell proliferation inhibition (SRB, 72 hours), HCT116; format: cell-based; conditions: Homo sapiens, HCT-116, 72 h
Procedure: as §2

[3] = system: HCC1937 (human breast cancer cells); experiment: Tumor cell proliferation inhibition (SRB, 72 hours), HCC1937; format: cell-based
Procedure: as §2

[4] = system: MDA-MB-468 (human breast cancer cells); experiment: Tumor cell proliferation inhibition (SRB, 72 hours), MDA-MB-468; format: cell-based
Procedure: as §2

[5] = system: Human Breast Cancer MDA-MB-468 Cell Nude Mice Xenograft; experiment: Growth of human breast cancer MDA-MB-468 cell nude mice xenograft; format: in vivo; conditions: for Tumor Volumes / Tumor weights: abdominal cavity, once every 2 days; for Tumor weights: after 34 days, in g (unit assumed)
Procedure: Preparing an MDA-MB-468 cell line in a logarithmic growth phase into a 2×10^7/mL cell suspension under sterile conditions, and inoculating 0.1 mL of the cell suspension under the skin of the right axilla of each nude mouse. Measuring the diameter of a nude mice xenograft with a vernier caliper, and randomly dividing the animals into groups after the tumors grew to about 100 mm^3. Dynamically observing an anti-tumor effect of the tested animals using a method of measuring the tumor diameter, wherein the frequency of measurements of the tumor diameter is once every 2 days, and the administration volume is 0.4 mL/20 g. After 34 days, killing the mice and surgically removing and weighing tumor pieces. The formula for calculating tumor volume (TV) is: TV=½×a×b^2, wherein a and b represent the length and the width respectively.

[6] = I-1 50 mg/kg, 1-3 50 mg/kg, olaparib 50 mg/kg/BKM120 27.5 mg/kg

PI3Kα, sequence (P42336 whole entry): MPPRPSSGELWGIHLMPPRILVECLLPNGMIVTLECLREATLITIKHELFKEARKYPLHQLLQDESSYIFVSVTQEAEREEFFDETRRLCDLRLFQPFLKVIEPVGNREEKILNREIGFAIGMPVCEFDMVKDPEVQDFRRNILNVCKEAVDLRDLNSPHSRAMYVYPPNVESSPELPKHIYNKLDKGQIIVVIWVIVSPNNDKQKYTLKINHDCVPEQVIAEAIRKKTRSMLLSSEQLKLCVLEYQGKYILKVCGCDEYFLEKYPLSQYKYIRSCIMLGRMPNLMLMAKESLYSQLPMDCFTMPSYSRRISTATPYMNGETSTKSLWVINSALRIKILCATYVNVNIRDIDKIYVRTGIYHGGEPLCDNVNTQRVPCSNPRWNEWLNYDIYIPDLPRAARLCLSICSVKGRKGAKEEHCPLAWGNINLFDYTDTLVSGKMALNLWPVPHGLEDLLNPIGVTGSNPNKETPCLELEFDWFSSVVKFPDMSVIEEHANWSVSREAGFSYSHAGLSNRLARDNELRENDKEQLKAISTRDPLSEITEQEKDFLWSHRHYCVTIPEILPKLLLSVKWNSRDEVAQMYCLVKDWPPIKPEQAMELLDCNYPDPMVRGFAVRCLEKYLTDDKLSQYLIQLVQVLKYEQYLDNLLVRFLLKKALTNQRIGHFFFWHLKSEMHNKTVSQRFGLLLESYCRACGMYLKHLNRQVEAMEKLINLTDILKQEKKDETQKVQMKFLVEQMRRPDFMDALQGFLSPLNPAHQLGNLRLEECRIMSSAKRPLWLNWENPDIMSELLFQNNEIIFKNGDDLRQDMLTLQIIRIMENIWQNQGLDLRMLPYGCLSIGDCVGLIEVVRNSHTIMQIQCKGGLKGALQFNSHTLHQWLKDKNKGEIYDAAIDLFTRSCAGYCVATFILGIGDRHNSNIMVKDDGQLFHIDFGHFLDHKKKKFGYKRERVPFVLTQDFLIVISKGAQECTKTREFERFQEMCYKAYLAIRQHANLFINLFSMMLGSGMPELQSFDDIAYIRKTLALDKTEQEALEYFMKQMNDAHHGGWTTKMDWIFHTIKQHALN
PI3Kα, sequence (P27986 whole entry partner): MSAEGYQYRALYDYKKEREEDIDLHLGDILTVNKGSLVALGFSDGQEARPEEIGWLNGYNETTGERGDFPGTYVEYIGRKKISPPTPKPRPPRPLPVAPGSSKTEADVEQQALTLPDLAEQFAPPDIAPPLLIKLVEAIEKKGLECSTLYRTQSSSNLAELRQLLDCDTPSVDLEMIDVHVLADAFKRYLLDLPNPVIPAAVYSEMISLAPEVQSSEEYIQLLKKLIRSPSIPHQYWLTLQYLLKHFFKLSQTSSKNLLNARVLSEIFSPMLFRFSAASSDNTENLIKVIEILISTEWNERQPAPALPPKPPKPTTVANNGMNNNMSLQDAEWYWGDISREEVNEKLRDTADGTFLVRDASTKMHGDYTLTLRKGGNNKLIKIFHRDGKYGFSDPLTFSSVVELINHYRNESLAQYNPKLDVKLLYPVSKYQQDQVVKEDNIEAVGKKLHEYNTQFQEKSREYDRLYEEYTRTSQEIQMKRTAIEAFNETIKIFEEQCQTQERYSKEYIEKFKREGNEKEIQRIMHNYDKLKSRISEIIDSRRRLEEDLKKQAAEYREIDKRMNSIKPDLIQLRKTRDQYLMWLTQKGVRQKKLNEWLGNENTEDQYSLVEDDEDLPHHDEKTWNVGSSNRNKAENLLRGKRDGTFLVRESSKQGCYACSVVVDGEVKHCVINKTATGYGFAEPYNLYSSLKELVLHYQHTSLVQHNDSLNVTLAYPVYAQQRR
PARP-1, sequence (P09874 whole entry): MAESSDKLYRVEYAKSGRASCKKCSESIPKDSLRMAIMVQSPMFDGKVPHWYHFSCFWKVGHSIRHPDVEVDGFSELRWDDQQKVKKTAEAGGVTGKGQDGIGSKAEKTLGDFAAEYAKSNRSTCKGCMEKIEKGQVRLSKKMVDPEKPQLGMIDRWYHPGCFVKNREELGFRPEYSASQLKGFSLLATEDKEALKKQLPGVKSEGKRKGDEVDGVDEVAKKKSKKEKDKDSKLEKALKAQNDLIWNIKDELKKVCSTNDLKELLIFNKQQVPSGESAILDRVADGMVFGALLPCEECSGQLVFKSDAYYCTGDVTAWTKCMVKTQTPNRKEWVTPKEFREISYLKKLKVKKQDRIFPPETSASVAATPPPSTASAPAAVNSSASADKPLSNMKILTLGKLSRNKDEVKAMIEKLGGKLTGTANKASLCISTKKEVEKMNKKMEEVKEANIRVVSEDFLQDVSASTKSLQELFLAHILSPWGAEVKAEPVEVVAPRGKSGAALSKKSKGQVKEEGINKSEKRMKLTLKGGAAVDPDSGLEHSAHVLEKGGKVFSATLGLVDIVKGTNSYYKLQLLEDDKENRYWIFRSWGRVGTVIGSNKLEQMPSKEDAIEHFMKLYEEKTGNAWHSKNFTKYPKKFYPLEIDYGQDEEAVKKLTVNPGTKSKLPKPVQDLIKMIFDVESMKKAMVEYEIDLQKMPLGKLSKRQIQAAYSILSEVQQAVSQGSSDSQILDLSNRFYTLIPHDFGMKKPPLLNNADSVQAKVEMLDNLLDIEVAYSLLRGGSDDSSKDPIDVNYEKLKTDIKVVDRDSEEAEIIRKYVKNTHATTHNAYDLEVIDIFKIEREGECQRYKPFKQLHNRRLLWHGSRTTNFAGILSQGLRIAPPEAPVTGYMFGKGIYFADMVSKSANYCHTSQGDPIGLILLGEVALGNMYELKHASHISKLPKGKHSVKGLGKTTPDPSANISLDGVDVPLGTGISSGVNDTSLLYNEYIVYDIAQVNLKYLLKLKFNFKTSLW

O=C(c1cc(Cc2n[nH]c(=O)c3ccccc23)ccc1F)N1CCc2c(nc(-c3cccc4[nH]ncc34)nc2N2CCOCC2)C1 [I-8, 4-(3-(2-(1H-indazole-4-yl)-4-morpholinyl-5,6,7,8-tetrahydropyrido[3,4-d]pyrimidin-7-formyl)-4-fluorobenzyl)phthalazin-1(2H)-one]
inhibition at 0.01 µM (PARP-1): 91%
IC50 [1]: 708 nM
inhibition at 0.1 µM (PI3Kα): 42%
IC50 [2]: 536 nM
IC50 ([3]; Homo sapiens, HCC1937, 72 h): 482 nM
IC50 ([4]; Homo sapiens, MDA-MB-468, 72 h): 1150 nM

Nc1ccc(-c2nc3c(c(N4CCOCC4)n2)CCN(C(=O)c2cc(Cc4n[nH]c(=O)c5ccccc45)ccc2F)C3)cn1 [I-2, 4-(3-(2-(6-aminopyridin-3-yl)-4-morpholinyl-5,6,7,8-tetrahydropyrido[3,4-d]pyrimidin-7-formyl)-4-fluorobenzyl)phthalazin-1(2H)-one]
IC50 (PARP-1): 0.395 nM
inhibition at 0.01 µM (PARP-1): 93%
IC50 [1]: 816 nM
IC50 (PI3Kα): 130 nM
inhibition at 0.1 µM (PI3Kα): 66%
IC50 [2]: 217 nM
IC50 ([3]; Homo sapiens, HCC1937, 72 h): 121 nM
IC50 ([4]; Homo sapiens, MDA-MB-468, 72 h): 1340 nM

Nc1ncc(-c2nc3c(c(N4CCOCC4)n2)CCN(C(=O)c2cc(Cc4n[nH]c(=O)c5ccccc45)ccc2F)C3)cn1 [I-1, 4-(3-(2-(2-aminopyrimidin-5-yl)-4-morpholinyl-5,6,7,8-tetrahydropyrido [3,4-d]pyrimidin-7-formyl)-4-fluorobenzyl) phthalazin-1(2H)-one]
Tumor Volumes ([5]; 0 day, 50 mg/kg (I-1: medium)): 94.95 mm^3
Tumor Volumes ([5]; 0 day, high, 100 mg/kg): 93.30 mm^3
Tumor Volumes ([5]; 0 day, low, 25 mg/kg): 96.16 mm^3
Anti-tumor effect compared with the combination group olaparib (50 mg/kg)/BKM120 (27.5 mg/kg) (in words) ([5]; 50 mg/kg, p<0.05): obviously superior
Dose dependence of tumor growth inhibition (in words) ([5]; 25, 50, 100 mg/kg): dose-dependent manner
Tumor Volumes ([5]; 6 days, 50 mg/kg (I-1: medium)): 136.45 mm^3
Tumor Volumes ([5]; 6 days, high, 100 mg/kg): 122.80 mm^3
Tumor Volumes ([5]; 6 days, low, 25 mg/kg): 205.61 mm^3
Tumor Volumes ([5]; 12 days, 50 mg/kg (I-1: medium)): 222.15 mm^3
Tumor Volumes ([5]; 12 days, high, 100 mg/kg): 145.60 mm^3
Tumor Volumes ([5]; 12 days, low, 25 mg/kg): 303.37 mm^3
Tumor Volumes ([5]; 18 days, 50 mg/kg (I-1: medium)): 301.78 mm^3
Tumor Volumes ([5]; 18 days, high, 100 mg/kg): 186.00 mm^3
Tumor Volumes ([5]; 18 days, low, 25 mg/kg): 401.23 mm^3
Tumor Volumes ([5]; 24 days, 50 mg/kg (I-1: medium)): 399.10 mm^3
Tumor Volumes ([5]; 24 days, high, 100 mg/kg): 209.30 mm^3
Tumor Volumes ([5]; 24 days, low, 25 mg/kg): 555.25 mm^3
Tumor Volumes ([5]; 30 days, 50 mg/kg (I-1: medium)): 489.89 mm^3
Tumor Volumes ([5]; 30 days, high, 100 mg/kg): 234.10 mm^3
Tumor Volumes ([5]; 30 days, low, 25 mg/kg): 707.38 mm^3
Tumor Volumes ([5]; 34 days, 50 mg/kg (I-1: medium)): 551.70 mm^3
Tumor Volumes ([5]; 34 days, high, 100 mg/kg): 250.00 mm^3
Tumor Volumes ([5]; 34 days, low, 25 mg/kg): 808.40 mm^3
Inhibition of the growth of the MDA-MB-468 nude mice xenografts (in words) [5, 6]: significantly inhibit the growth
Inhibition rate compared with positive drugs olaparib and BKM120 (in words) [5, 6]: higher
Tumor weights ([5]; 50 mg/kg (I-1: medium)): 0.54
Tumor weights ([5]; high, 100 mg/kg): 0.34
Tumor weights ([5]; low, 25 mg/kg): 0.85
IC50 (PARP-1): 3.75 nM
inhibition at 0.01 µM (PARP-1): 81%
IC50 (PI3Kα): 69 nM
inhibition at 0.1 µM (PI3Kα): 66%
IC50 [3]: 81 nM
IC50 [4]: 909 nM
IC50 ([4]; Homo sapiens, MDA-MB-468, 72 h): < 1000 nM
